The source of these data is ChEMBL document CHEMBL5058643, “Data for DCP probe BI-2081” (2022).

One may read the EC50 as the concentration giving half of the maximal effect. As a reminder, the Ki is a dissociation constant, usually derived from enzyme kinetics or from competition with a known ligand. Usually pKi stands for the Ki on a negative log10 scale, so that one unit is a factor of ten. One may read the inhibition as the relative decrease from the control value, in per cent.

Data set [1] has as its target T1, Voltage-dependent L-type calcium channel subunit alpha-1C (Rattus norvegicus, UniProt P22002). In words: CA+/DHPSI/RA Eurofins SafetyScreen44 (BI). As to conditions: compound concentration 10 uM, read-out: % Ctrl.
Data set [2] addresses Free fatty acid receptor 1 (Homo sapiens, UniProt O14842). Put plainly: IPOne assay.
In data set [3] the target is Adenosine receptor A3 (Homo sapiens) (UniProt P0DMS8). In words: A3/H Eurofins SafetyScreen44 (BI). As to conditions: Compound concentration 10.0 uM.
Data set [4] concerns the target Peroxisome proliferator-activated receptor alpha (Homo sapiens) (UniProt Q07869). Put plainly: PPAR_ALPHA Eurofins SafetyScreen44 (BI). Particulars: filed as agonist, Compound concentration 10.0 uM.
For data set [5], the target named is Sodium-dependent serotonin transporter (Homo sapiens) (UniProt P31645). Put plainly: 5HTTRANS/HU Eurofins SafetyScreen44 (BI). Particulars: Compound concentration 10.0 uM.
Sequence of Sodium-dependent serotonin transporter (Homo sapiens) (P31645 whole entry, looked up): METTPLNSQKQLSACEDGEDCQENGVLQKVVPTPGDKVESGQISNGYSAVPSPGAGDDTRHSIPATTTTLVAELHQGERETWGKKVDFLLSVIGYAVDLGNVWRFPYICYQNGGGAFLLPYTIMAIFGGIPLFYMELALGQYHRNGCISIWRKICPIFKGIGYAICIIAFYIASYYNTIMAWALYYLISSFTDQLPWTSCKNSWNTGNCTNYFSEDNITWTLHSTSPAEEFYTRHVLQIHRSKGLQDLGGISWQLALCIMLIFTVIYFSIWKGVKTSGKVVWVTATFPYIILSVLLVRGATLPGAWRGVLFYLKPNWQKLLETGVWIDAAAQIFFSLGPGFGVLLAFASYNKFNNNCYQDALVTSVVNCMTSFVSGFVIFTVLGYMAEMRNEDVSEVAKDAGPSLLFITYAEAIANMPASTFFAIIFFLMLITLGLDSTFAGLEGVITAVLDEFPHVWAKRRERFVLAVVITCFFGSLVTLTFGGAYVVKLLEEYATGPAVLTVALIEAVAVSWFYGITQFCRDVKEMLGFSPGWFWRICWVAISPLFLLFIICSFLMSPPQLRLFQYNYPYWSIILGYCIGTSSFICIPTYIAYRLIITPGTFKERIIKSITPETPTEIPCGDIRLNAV
Data set [6] addresses Glutamate receptor ionotropic, NMDA 2A (Rattus norvegicus) (UniProt Q00959). Put plainly: NMDAPHSI/R Eurofins SafetyScreen44 (BI). As to conditions: Compound concentration 10.0 uM.
Data set [7] deals with Voltage-dependent N-type calcium channel subunit alpha-1B (Rattus norvegicus) (UniProt Q02294). Put plainly: CA+/N/RA Eurofins SafetyScreen44 (BI). Particulars: Compound concentration 10.0 uM.
Data set [8] has as its target GABA-A receptor; anion channel. Put plainly: GPCRScan assay: inhibition of GABAA/BZP. The format is protein-complex assay, Rattus norvegicus. On the set-up: radioligand conc. used [nm] 0.6 – 4.0, parental cells brain tissue.
The target in data set [9] is Gamma-aminobutyric acid receptor subunit alpha-1 (Rattus norvegicus) (UniProt P62813). In words: GABAA MUSCIMOL CENT Eurofins SafetyScreen44 (BI). As to conditions: Compound concentration 10.0 uM.
In data set [10] the target is Sodium-dependent noradrenaline transporter (Homo sapiens) (UniProt P23975). Put plainly: NETRANS/H Eurofins SafetyScreen44 (BI). Particulars: Compound concentration 10.0 uM.
Data set [11] has as its target Histamine H2 receptor (Homo sapiens) (UniProt P25021). Put plainly: H2/H Eurofins SafetyScreen44 (BI). Particulars: Compound concentration 10.0 uM.
Data set [12] has as its target T2, Alpha-1A adrenergic receptor (Homo sapiens) (UniProt P35348).
T2 sequence (whole entry): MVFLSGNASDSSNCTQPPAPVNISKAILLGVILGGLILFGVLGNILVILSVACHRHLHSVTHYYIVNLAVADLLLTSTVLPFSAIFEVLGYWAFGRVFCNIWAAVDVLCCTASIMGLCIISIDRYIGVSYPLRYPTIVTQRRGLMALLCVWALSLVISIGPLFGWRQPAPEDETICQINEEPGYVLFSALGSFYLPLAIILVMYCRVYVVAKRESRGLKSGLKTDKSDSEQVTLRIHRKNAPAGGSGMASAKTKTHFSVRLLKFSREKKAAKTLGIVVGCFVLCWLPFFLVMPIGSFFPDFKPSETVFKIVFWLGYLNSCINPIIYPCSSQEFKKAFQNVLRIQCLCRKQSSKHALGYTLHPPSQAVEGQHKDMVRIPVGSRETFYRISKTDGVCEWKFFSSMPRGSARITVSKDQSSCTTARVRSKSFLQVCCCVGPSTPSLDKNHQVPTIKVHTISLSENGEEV
Particulars: Compound concentration 10.0 uM.

Data set [13] concerns the target Beta-2 adrenergic receptor (Homo sapiens) (UniProt P07550). In words: BETA2/HU Eurofins SafetyScreen44 (BI). Particulars: Compound concentration 10.0 uM.
Data set [14] deals with Mu-type opioid receptor (Homo sapiens) (UniProt P35372). In words: MU/HU Eurofins SafetyScreen44 (BI). Particulars: Compound concentration 10.0 uM.
Sequence of Mu-type opioid receptor (Homo sapiens) (P35372 whole entry): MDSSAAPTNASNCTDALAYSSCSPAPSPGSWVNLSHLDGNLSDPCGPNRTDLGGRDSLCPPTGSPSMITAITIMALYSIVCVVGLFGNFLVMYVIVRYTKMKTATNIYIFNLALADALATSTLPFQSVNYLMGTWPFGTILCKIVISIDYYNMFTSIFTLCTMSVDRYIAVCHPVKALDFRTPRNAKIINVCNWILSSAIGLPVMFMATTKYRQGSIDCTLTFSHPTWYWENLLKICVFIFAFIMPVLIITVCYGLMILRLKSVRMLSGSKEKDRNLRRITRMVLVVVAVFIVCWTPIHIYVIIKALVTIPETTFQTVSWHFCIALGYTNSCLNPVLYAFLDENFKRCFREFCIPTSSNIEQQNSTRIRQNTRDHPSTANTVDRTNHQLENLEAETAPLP
Data set [15] addresses T1, Voltage-dependent L-type calcium channel subunit alpha-1C. In words: CA+/DILSI/RA Eurofins SafetyScreen44 (BI). As to conditions: compound concentration 10 uM, read-out: % Ctrl.
The target in data set [16] is Delta-type opioid receptor (Homo sapiens) (UniProt P41143). In words: DELTA/HU Eurofins SafetyScreen44 (BI). Particulars: Compound concentration 10.0 uM.
Sequence of Delta-type opioid receptor (Homo sapiens) (P41143 whole entry): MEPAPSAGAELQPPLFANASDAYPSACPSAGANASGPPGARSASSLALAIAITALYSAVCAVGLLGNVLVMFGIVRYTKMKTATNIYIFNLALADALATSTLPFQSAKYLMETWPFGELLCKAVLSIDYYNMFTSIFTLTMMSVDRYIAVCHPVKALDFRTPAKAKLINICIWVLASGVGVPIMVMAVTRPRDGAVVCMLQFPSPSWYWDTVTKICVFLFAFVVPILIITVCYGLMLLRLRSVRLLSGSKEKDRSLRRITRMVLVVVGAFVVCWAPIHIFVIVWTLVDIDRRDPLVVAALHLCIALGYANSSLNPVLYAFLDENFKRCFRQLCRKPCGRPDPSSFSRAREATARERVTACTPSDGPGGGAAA
Data set [17] has as its target Kappa-type opioid receptor (Homo sapiens) (UniProt P41145). Put plainly: KAPPA/HU Eurofins SafetyScreen44 (BI). As to conditions: Compound concentration 10.0 uM.
Data set [18] concerns the target Histamine H1 receptor (Homo sapiens) (UniProt P35367). In words: H1/H Eurofins SafetyScreen44 (BI).
Data set [19] concerns the target Peroxisome proliferator-activated receptor gamma (Homo sapiens) (UniProt P37231). In words: PPARG/H AG Eurofins SafetyScreen44 (BI). As to conditions: filed as agonist, Compound concentration 10.0 uM.
Data set [20] has as its target Adenosine receptor A2a (Homo sapiens) (UniProt P29274). Put plainly: A2A/H Eurofins SafetyScreen44 (BI). As to conditions: filed as antagonist, Compound concentration 10.0 uM.
The target in data set [21] is Beta-2 adrenergic receptor (Homo sapiens) (UniProt P07550). Put plainly: BETA2/HUM Eurofins SafetyScreen44 (BI). As to conditions: filed as antagonist, Compound concentration 10.0 uM.
Sequence of Beta-2 adrenergic receptor (Homo sapiens) (P07550 whole entry, looked up): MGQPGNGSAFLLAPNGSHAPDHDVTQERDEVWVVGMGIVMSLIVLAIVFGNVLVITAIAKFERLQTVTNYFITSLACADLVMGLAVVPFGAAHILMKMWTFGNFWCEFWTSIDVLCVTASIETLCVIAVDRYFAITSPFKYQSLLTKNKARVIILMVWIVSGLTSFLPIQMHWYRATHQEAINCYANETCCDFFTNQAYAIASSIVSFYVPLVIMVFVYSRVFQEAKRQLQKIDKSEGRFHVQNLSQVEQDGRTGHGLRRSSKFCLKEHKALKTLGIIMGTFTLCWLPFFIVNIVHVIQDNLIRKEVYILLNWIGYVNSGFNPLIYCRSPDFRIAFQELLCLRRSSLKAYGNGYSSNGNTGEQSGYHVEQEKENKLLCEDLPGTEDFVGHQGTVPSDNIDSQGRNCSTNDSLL
Data set [22] addresses Histamine H2 receptor (Homo sapiens) (UniProt P25021). In words: H2/APT/HS Eurofins SafetyScreen44 (BI). As to conditions: filed as antagonist, Compound concentration 10.0 uM.
The target of data set [23] is Neuronal acetylcholine receptor; alpha4/beta2 (Homo sapiens) (UniProt P17787+P43681). In words: N_NEURO_A4B2 Eurofins SafetyScreen44 (BI). The format is protein-complex assay. As to conditions: filed as agonist, Compound concentration 10.0 uM.
The target of data set [24] is Beta-1 adrenergic receptor (Homo sapiens) (UniProt P08588). Put plainly: BETA1/HUM Eurofins SafetyScreen44 (BI). Particulars: Compound concentration 10.0 uM.
Data set [25] addresses Vasopressin V1a receptor (Homo sapiens) (UniProt P37288). Put plainly: V1A/HUM Eurofins SafetyScreen44 (BI). Particulars: Compound concentration 10.0 uM.
Data set [26] has as its target T3, Muscarinic acetylcholine receptor M1 (Homo sapiens) (UniProt P11229).
T3 sequence (whole entry): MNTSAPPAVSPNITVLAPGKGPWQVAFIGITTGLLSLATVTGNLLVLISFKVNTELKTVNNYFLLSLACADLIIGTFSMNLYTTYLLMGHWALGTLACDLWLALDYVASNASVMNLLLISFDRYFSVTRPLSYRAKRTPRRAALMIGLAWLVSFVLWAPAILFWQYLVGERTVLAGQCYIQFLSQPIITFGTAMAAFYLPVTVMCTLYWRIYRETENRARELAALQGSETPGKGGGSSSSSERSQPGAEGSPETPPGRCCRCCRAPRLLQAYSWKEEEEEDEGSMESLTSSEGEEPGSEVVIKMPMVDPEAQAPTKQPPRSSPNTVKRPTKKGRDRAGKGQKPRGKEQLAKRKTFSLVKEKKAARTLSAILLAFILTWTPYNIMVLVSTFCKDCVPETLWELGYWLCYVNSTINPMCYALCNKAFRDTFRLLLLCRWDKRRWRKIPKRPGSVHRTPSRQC
Put plainly: M1/H Eurofins SafetyScreen44 (BI). Particulars: Compound concentration 10.0 uM.

In data set [27] the target is Prostaglandin G/H synthase 1 (Homo sapiens) (UniProt P23219). In words: COX-1 Eurofins SafetyScreen44 (BI). Particulars: Compound concentration 10.0 uM.
For data set [28], the target named is Mu-type opioid receptor (Homo sapiens) (UniProt P35372). In words: MU/H Eurofins SafetyScreen44 (BI). Particulars: Compound concentration 10.0 uM.
In data set [29] the target is Sodium-dependent serotonin transporter (Homo sapiens) (UniProt P31645). In words: SLC6A4/H Eurofins SafetyScreen44 (BI). As to conditions: filed as antagonist, Compound concentration 10.0 uM.

Activity calls are given as the source filed them. No cut-off for these calls is given here.

Sequence of Histamine H1 receptor (Homo sapiens) (P35367 whole entry): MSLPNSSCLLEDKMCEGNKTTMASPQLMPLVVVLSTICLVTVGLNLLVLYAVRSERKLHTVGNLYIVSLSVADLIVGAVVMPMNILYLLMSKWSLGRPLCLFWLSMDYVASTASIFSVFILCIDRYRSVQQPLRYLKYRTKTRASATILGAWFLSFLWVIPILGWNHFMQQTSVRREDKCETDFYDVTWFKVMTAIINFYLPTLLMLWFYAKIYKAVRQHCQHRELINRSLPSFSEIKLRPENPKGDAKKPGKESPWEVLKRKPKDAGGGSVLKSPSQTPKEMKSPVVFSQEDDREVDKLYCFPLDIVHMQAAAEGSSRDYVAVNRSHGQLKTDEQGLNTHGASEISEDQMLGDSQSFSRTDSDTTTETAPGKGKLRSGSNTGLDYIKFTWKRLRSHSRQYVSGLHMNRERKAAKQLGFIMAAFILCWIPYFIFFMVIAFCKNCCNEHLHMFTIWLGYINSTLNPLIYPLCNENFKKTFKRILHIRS
Sequence of Histamine H2 receptor (Homo sapiens) (P25021 whole entry): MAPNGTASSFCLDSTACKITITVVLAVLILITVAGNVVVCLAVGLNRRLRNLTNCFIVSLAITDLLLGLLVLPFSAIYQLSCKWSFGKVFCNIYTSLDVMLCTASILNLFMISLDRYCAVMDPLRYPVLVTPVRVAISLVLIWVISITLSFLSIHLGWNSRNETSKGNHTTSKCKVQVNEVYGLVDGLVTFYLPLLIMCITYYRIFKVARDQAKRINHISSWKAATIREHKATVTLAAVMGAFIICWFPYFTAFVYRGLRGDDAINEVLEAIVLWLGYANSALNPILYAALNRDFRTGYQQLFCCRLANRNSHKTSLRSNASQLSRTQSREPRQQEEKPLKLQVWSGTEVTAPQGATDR
T1 sequence (P22002 whole entry): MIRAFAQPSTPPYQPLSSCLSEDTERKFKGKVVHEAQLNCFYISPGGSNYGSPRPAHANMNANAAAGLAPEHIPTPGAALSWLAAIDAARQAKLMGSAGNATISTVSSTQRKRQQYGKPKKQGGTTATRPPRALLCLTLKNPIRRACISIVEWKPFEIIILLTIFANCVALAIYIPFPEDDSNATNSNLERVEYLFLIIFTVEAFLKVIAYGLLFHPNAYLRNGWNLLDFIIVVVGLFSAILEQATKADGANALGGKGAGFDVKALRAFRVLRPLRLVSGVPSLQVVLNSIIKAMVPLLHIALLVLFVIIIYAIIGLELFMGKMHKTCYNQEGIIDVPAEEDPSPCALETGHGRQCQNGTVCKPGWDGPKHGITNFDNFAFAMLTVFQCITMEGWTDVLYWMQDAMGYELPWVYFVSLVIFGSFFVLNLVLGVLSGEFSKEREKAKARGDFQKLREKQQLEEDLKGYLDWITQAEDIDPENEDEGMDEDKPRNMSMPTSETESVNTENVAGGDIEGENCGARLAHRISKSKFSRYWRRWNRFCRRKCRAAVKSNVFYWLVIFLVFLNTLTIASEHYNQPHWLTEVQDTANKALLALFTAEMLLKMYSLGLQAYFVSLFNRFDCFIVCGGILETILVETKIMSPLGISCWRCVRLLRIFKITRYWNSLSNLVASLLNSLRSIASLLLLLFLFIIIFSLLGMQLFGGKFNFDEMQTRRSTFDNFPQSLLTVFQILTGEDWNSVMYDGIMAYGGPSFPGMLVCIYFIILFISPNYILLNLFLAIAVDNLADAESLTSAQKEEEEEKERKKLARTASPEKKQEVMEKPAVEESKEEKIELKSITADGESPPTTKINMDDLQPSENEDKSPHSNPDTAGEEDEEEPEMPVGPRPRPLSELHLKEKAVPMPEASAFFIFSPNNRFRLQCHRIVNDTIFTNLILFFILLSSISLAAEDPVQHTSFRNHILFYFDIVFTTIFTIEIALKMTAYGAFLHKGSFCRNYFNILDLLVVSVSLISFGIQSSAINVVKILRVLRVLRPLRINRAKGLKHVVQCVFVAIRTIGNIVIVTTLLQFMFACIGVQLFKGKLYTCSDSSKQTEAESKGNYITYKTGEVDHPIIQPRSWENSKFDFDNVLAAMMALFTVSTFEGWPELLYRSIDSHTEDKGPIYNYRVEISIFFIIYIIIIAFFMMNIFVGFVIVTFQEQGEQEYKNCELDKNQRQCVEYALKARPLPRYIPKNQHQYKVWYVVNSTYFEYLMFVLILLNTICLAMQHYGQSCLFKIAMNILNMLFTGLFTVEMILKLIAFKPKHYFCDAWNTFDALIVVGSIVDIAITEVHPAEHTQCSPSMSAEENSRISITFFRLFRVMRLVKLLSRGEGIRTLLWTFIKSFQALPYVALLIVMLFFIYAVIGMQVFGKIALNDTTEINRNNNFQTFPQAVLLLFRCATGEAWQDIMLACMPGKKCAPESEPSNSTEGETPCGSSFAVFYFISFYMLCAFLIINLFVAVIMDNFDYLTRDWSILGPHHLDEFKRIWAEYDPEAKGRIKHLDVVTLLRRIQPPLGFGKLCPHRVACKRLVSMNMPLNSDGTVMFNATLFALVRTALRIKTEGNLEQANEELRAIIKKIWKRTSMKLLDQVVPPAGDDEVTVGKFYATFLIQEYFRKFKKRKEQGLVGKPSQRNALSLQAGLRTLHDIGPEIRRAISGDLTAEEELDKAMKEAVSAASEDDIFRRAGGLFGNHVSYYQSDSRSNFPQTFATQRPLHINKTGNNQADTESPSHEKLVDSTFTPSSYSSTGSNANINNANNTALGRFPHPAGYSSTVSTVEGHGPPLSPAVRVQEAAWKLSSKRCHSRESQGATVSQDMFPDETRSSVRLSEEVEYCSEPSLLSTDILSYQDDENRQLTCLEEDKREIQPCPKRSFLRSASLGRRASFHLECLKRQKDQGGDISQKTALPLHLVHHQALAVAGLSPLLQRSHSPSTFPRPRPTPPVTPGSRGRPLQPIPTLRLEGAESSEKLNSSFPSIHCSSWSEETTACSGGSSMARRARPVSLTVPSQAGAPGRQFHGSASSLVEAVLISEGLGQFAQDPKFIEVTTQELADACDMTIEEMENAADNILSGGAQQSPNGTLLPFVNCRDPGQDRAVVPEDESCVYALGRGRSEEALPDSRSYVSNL

As for `Cc1cc(OCCC(C)(C)O)cc(C)c1-c1ccc(F)c2c1CC[C@H]2Oc1ccc2c(c1)OC[C@H]2CC(=O)O`, the activity at 10 µM in data set [1] was 90% (not active); in data set [15], 100% (not active). Further, the concentration giving a half-maximal response (EC50) in data set [2] was 0.003 µM (active). For the same compound, the residual activity in data set [3] is 100%; in [4], 119%; in [5] it was 106%; in data set [6], 103%; in [7], 113%; in data set [9], 87%. Also, the residual activity in [10] is 68%; in data set [11] it was 95%; in [13], 109%; in data set [14] it was 76%; in data set [16], 74%; in data set [17], 106%. Further, the residual activity in [18] (Compound concentration 0.3 uM) is 90%; in data set [18] (Compound concentration 1.0 uM) it was 87%; in [18] (Compound concentration 3.0 uM), 68%; in data set [18] (Compound concentration 10.0 uM), 39%; in data set [18] (Compound concentration 30.0 uM), 17%; in data set [19], 8%. Moreover, in [8], the Ki is more than 10 µM. For the same compound, in data set [8], the pKi was less than 5. Besides, the inhibition in data set [12] is -8.92%.
In the case of `COCCCS(=O)(=O)c1cc(C)c(-c2ccc(F)c3c2CC[C@H]3Oc2ccc3c(c2)OC[C@H]3CC(=O)O)c(C)c1`, the residual activity in data set [20] is 102%; in [21], 99%; in data set [22], 93%; in [23] it was 112%; in data set [24], 88%; in [25], 90%. Further, the residual activity in [26] is 112%; in [27], 88%; in [28] it was 75%; in [29], 109%.
